Where “and” joins values, the source holds several entries; their conditions need not be identical. Identical values can stand only once. Like-named read-outs stand apart in the source and are kept apart here. One block for each compound: values may come before it.
Legend:
[1] = mean population model parameter; cited from earlier work
[2] = paracetamol alone vs with semaglutide; cited from earlier work
[3] = immediate release tablets, cited from earlier work
[4] = final model with semaglutide covariate
[5] = model without semaglutide covariate
[6] = semaglutide 1.0 mg s.c. once weekly at steady state
[7] = young adults, body weight 62–84 kg

T50 estimate (atorvastatin with semaglutide): 83 min
T50 (atorvastatin with semaglutide (Figure 8)): 1.38 h
T50 estimate (atorvastatin without semaglutide): 16 min
ka (Placebo), Bootstrap mean [95%CI] (bootstrap 1000 replicates): 6.56 [3.29–12.1] h^−1
ktr (Placebo), Bootstrap mean [95%CI] (bootstrap 1000 replicates): 10.4 [4.48–44.0] h^−1
Θkacovariate, Bootstrap mean [95%CI] (bootstrap 1000 replicates): 0.821 [0.649–0.925]
Θktrcovariate, Bootstrap mean [95%CI] (bootstrap 1000 replicates): 0.820 [0.629–0.972]
ω^2 Ka, Bootstrap mean [95%CI] (bootstrap 1000 replicates): 2.21 [1.41–3.32]
ω^2 Ktr, Bootstrap mean [95%CI] (bootstrap 1000 replicates): 1.82 [0.390–3.17]
Between subject variability ω^2 Ka, Estimates [4]: 2.03
Between subject variability ω^2 Ktr, Estimates [4]: 1.82
Θkacovariate, Estimates (fractional reduction of ka with semaglutide (dKadplacebo)): 0.829
Θktrcovariate, Estimates (fractional reduction of ktr with semaglutide (dKtrdplacebo)): 0.791
BSV variance (Omega^2) for ka before semaglutide covariate [5]: 3.29
BSV variance (Omega^2) for ktr before semaglutide covariate [5]: 3.19
ka when co-administered with semaglutide [6]: 0.986 h⁻¹
ktr when co-administered with semaglutide [6]: 1.52 h⁻¹
ktr (Placebo), Estimates (transit compartment rate constant, without semaglutide): 7.3 h⁻¹ and 7.28 h⁻¹
decrease of ka when co-administered with semaglutide (with vs without semaglutide): 83%
decrease of ktr when co-administered with semaglutide (with vs without semaglutide): 79%
Compound: CC(C)c1c(C(=O)Nc2ccccc2)c(-c2ccccc2)c(-c2ccc(F)cc2)n1CC[C@@H](O)C[C@@H](O)CC(=O)O [atorvastatin]
ka [1]: 3.5 h^‐1

Compound: CC(=O)Nc1ccc(O)cc1 [paracetamol]
alteration in paracetamol AUC0‐5h [2]: no significant alteration
ka [3]: 4.33 h⁻¹
V1/F [3, 7]: 30.7 L
V2/F [3, 7]: 19.9 L

Reference: article PMC9263537 (Pharmacology Research & Perspectives, 2022)
